Experimental data taken from article PMC5698469, “Carrageenan catabolism is encoded by a complex regulon in marine heterotrophic bacteria” (Nature Communications, 2017).
Counter-ions that a name gives are not always drawn. Blank lines part the entries; values can stand above or below the compound they belong to.

Key:
[1] = biological target: α-1,3-(3,6-anhydro)-D-galactosidase DagB (ZGAL_3152, GH129-like) (Zobellia galactanivorans); test: crystal structure; hanging drop vapor diffusion; 0.14 M Na/K-tartrate, 12% PEG 3350, 9 mg/mL ZGAL_3152; data at 100 K
[2] = biological target: T1, ZGAL_3148 (DagA2, GH127-2) (Zobellia galactanivorans, UniProt G0L7B5); test: FACE and MALDI MS, E. coli soluble lysate; assay type: biochemical; conditions: 0.5% hexasaccharide fraction, 150 mM NaCl, 3.75 mM CaCl2, 100 mM HEPES pH 7.5, room temperature overnight
T1 construct: gene zobellia_3148; recombinant, soluble lysate of E. coli BL21(DE3), pFO4
T1 sequence (G0L7B5 1-656): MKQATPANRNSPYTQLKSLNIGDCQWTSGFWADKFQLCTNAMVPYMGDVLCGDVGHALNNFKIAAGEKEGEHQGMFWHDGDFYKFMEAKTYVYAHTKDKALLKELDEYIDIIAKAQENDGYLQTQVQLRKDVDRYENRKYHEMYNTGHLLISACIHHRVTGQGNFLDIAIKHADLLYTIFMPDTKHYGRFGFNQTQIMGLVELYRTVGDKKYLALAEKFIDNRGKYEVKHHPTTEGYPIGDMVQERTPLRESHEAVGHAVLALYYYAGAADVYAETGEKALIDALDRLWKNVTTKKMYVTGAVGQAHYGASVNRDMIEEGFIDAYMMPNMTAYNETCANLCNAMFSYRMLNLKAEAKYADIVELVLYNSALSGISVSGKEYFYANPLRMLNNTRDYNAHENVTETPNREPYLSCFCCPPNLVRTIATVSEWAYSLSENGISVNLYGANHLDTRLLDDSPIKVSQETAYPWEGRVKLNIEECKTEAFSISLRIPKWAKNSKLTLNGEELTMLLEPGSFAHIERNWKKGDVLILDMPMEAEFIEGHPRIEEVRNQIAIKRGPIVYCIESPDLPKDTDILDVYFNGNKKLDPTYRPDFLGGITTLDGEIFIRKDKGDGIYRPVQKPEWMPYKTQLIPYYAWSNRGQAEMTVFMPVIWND

[3] = biological target: T2, ZGAL_3147 (DagA1, GH127-1) (Zobellia galactanivorans, UniProt G0L001); test: FACE and MALDI MS, E. coli soluble lysate; assay type: biochemical; conditions: 0.5% hexasaccharide fraction, 150 mM NaCl, 3.75 mM CaCl2, 100 mM HEPES pH 7.5, room temperature overnight; vector-only lysate as control
T2 construct: gene zobellia_3147; recombinant, soluble lysate of E. coli BL21(DE3), pFO4
T2 sequence (G0L001 20-681): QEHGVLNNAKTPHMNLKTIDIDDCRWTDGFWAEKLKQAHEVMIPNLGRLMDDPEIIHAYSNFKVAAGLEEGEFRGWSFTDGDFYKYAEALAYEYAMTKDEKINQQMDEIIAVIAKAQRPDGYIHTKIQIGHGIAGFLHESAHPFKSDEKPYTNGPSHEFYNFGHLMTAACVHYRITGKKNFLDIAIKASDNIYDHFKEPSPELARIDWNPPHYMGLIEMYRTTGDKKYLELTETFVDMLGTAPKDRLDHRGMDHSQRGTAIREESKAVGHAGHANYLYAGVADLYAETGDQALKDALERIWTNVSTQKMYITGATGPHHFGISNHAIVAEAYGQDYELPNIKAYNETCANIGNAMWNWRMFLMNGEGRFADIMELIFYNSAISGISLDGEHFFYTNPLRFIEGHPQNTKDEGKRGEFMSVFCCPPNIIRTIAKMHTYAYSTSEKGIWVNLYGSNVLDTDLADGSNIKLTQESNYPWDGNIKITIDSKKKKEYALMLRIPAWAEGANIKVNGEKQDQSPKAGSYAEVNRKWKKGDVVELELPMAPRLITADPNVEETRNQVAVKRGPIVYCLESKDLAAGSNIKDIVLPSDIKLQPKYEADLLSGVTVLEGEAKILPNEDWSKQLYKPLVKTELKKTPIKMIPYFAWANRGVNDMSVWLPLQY

[4] = biological target: 3,6-anhydro-D-galactonate cycloisomerase DauB (ZGAL_3156) (Zobellia galactanivorans); test: SEC; size-exclusion column analysis of ZGAL_3156 in solution (Supplementary Fig. 9)
[5] = biological target: 3,6-anhydro-D-galactonate cycloisomerase DauB (ZGAL_3156) (Zobellia galactanivorans); test: crystal structure; hanging drop vapor diffusion; 0.2 M tri potassium citrate, 20% PEG 3350, 25 mg/mL ZGAL_3156; data at 100 K
[6] = biological target: T3, ZGAL_3152 (DagB, GH129-like) (Zobellia galactanivorans, UniProt G0L004); test: FACE and MALDI-TOF-MS; assay type: biochemical; conditions: 0.5% hexasaccharide fraction, 150 mM NaCl, 3.75 mM CaCl2, 100 mM HEPES pH 7.5, room temperature overnight
T3 construct: gene zobellia_3152; recombinant, E. coli BL21(DE3), pFO4, IMAC purified; homodimer, residues Pro35-Asp693 described in structure
T3 sequence (G0L004 entry or part of it): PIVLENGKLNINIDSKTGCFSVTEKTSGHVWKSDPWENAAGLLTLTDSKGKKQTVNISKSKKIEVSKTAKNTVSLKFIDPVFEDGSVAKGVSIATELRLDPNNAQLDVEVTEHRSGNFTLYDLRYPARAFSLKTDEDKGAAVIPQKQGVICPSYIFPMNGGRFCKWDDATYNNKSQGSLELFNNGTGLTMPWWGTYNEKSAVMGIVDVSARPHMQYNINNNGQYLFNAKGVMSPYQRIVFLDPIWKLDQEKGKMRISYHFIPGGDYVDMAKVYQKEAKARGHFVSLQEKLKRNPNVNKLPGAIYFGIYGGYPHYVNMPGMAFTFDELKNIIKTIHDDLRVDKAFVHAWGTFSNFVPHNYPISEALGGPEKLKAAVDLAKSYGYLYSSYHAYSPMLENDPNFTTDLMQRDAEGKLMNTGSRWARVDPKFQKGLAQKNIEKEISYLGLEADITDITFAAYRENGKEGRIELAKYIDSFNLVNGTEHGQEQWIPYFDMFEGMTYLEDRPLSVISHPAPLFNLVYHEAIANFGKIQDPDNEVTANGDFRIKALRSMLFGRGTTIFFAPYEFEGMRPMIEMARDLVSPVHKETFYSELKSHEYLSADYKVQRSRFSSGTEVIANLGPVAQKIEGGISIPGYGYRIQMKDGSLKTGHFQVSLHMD

ZGAL_3146 (CgsB1, S1_7) = biological target: T4, ZGAL_3146 (CgsB1, S1_7) (Zobellia galactanivorans, UniProt G0L7B4); test: sulfatase activity on artificial substrate; assay type: biochemical
T4 construct: gene idsA3
T4 sequence (G0L7B4 19-544): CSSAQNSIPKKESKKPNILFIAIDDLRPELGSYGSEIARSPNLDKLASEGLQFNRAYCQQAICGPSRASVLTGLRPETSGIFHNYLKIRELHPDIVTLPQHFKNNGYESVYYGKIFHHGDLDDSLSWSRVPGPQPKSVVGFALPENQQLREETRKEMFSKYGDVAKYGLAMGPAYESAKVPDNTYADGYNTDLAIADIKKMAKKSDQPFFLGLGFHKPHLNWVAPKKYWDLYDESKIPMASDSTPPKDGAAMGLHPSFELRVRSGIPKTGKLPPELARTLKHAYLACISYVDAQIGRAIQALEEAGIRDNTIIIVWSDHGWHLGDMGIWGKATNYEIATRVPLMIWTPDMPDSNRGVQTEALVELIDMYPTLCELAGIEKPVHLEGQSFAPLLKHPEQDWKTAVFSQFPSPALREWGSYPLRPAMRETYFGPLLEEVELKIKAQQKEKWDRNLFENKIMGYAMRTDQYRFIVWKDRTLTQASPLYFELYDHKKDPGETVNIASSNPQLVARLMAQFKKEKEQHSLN

ZGAL_3145 (CgsA, S1_19) = biological target: T5, ZGAL_3145 (CgsA, S1_19) (Zobellia galactanivorans, UniProt G0L000); test: sulfatase activity on artificial substrate; assay type: biochemical
T5 construct: gene zobellia_3145
T5 sequence (G0L000 44-511): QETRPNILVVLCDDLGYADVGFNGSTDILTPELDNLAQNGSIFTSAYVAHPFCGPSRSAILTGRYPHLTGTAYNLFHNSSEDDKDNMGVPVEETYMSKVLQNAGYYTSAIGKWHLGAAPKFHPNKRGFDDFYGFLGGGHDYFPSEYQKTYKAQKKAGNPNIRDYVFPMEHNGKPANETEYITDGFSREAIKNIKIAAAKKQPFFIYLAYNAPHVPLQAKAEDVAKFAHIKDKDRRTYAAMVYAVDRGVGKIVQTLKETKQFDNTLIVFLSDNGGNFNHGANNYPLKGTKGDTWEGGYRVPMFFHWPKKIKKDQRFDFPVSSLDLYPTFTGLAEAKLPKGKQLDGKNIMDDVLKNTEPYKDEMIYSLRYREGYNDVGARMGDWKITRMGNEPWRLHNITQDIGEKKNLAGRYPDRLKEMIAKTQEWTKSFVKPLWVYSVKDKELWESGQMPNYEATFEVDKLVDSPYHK

ZGAL_3151 (CgsC, S1_17) = biological target: T6, ZGAL_3151 (CgsC, S1_17) (Zobellia galactanivorans, UniProt G0L7B6); test: sulfatase activity on artificial substrate; assay type: biochemical
T6 construct: gene zobellia_3151
T6 sequence (G0L7B6 40-596): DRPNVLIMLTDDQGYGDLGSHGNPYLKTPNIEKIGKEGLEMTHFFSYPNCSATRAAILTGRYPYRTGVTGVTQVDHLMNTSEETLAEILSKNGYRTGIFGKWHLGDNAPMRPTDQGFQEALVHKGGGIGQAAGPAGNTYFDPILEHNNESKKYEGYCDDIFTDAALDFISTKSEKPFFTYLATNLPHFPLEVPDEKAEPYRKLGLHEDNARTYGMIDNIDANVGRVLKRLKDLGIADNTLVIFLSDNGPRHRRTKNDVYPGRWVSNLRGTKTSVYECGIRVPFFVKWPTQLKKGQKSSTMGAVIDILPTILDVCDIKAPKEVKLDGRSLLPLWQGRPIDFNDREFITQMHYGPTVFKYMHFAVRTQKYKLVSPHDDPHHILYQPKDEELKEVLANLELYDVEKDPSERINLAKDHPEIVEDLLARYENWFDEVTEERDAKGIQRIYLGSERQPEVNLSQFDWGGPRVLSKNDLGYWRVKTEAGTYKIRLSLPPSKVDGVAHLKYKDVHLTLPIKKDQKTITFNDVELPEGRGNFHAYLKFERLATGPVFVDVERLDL

stoichiometry N [1]: 2
Compound: α-1,3-(3,6-anhydro)-D-galactosidase DagB (ZGAL_3152, GH129-like) (enzyme)

Compound: O=S(=O)(O)O[C@@H]1[C@H](O[C@H]2O[C@@H]3CO[C@H]([C@H]2O)[C@H]3O[C@@H]2O[C@H](CO)[C@H](O)[C@H](O[C@H]3O[C@@H]4CO[C@@H]([C@H]4O)[C@H]3O)[C@H]2O)[C@@H](O)[C@H](O[C@@H]2[C@@H]3OC[C@H]2O[C@H](O[C@H]2[C@@H](OS(=O)(=O)O)[C@@H](CO)OC(O)[C@@H]2O)[C@@H]3O)O[C@@H]1CO (stereo partly drawn) [DP6 beta-kappa-kappa oligosaccharide]
FACE and MALDI MS, E. coli soluble lysate [2]: All the GHs showed activity on the furcellaran hexasaccharide, as demonstrated using FACE
FACE and MALDI MS, E. coli soluble lysate [3]: All the GHs showed activity on the furcellaran hexasaccharide, as demonstrated using FACE

stoichiometry N [4]: 8
stoichiometry N [5]: 8
Compound: 3,6-anhydro-D-galactonate cycloisomerase DauB (ZGAL_3156) (enzyme)

Compound: O=C[C@H](O)[C@H]1OC[C@@H](O)[C@@H]1O [D-AnG]
FACE and MALDI-TOF-MS [6]: indicated the release of the terminal neutral monosaccharide D-AnG and of a pentasaccharide

Compound: Cc1cc(=O)oc2cc(OS(=O)(=O)O)ccc12 [4-methylumbelliferyl sulfate]
sulfatase activity on artificial substrate (ZGAL_3146 (CgsB1, S1_7)): shown to be active sulfatases using the artificial substrate 4-methylumbelliferyl sulfate
sulfatase activity on artificial substrate (ZGAL_3145 (CgsA, S1_19)): shown to be active sulfatases using the artificial substrate 4-methylumbelliferyl sulfate
sulfatase activity on artificial substrate (ZGAL_3151 (CgsC, S1_17)): shown to be active sulfatases using the artificial substrate 4-methylumbelliferyl sulfate
